Patent US20260297060A1, “COMPOUNDS FOR THE DEGRADATION OF MUTANT BRAF” (C4 THERAPEUTICS, INC., priority 2023, published 2026)
Read-outs that look alike come from different tables or passages of the source.

Target: T1, BRAF V600E (Homo sapiens, UniProt P15056+Q96SW2, V600E)
T1 construct: knock-in of the HiBiT tag to the endogenous BRAF V600E locus; host or cells: A375.10 (A375 clonal line, CRISPR HiBiT knock-in at the endogenous BRAF V600E locus)
Test: BRAF V600E HiBiT Degradation Assay
Assay type: cell-based
In short: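 Endogenous HiBiT knock-in on BRAF V600E in A375 cells (clone A375.10); 11-point half-log series, top 10 μM, 2, 6 or 24 h at 37° C. Lytic HiBiT luminescence, background-subtracted, normalized to DMSO; 4-parameter fit gives DC50, Emax (residual protein) and IP (inflection point).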

[1] = A375.10 cells, BRAF V600E, 2 hours, inflection point, read-out: HiBiT-Degradation A375.10 BRAF 2 hours IP
[2] = A375.10 cells, BRAF V600E, 2 hours, read-out: HiBiT-Degradation A375.10 BRAF 2 hours DC50
[3] = A375.10 cells, BRAF V600E, 6 hours, inflection point, read-out: HiBiT-Degradation A375.10 BRAF 6 hours IP
[4] = A375.10 cells, BRAF V600E, 6 hours, read-out: HiBiT-Degradation A375.10 BRAF 6 hours DC50
[5] = A375.10 cells, BRAF V600E, 6 hours, residual protein remaining, read-out: HiBiT-Degradation A375.10 BRAF 6 hours Emax
[6] = A375.10 cells, HiBiT, BRAF V600E, 24 hours, read-out: HiBiT-Degradation A375.10 BRAF 24 hours DC50
[7] = A375.10 cells, HiBiT, BRAF V600E, 24 hours, read-out: HiBiT-Degradation A375.10 BRAF 24 hours Emax
[8] = A375.10 cells, HiBiT, BRAF V600E, 24 hours, read-out: HiBiT-Degradation A375.10 BRAF 24 hours IP
[9] = read-out: HiBiT-Degradation A375.10 BRAF 2 hours Emax, A375.10 cells, BRAF V600E, 2 hours, residual protein remaining
[10] = A375.10 cells, BRAF V600E, 2 hours, residual protein remaining, read-out: HiBiT-Degradation A375.10 BRAF 2 hours Emax

T1 sequence (P15056 whole entry V600E): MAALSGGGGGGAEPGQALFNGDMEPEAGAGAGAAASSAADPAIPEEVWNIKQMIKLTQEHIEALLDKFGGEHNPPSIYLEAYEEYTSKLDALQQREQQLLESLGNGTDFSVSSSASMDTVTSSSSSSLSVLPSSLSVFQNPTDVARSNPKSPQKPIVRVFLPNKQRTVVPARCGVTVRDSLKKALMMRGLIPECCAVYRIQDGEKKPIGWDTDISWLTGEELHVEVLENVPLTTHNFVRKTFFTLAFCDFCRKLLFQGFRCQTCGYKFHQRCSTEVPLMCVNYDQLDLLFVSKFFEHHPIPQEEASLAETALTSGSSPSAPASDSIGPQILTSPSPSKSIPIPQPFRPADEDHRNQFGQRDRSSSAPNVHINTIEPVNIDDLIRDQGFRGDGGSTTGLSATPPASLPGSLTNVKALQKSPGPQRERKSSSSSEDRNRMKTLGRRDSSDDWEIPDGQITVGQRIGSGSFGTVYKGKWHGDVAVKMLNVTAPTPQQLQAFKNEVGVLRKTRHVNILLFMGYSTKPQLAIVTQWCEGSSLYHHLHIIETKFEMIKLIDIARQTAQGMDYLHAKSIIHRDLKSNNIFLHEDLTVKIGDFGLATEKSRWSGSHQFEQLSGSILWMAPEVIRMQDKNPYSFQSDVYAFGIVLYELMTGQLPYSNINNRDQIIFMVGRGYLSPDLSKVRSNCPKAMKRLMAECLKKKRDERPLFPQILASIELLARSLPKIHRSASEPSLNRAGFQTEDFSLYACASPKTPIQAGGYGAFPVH
T1 sequence (Q96SW2 whole entry): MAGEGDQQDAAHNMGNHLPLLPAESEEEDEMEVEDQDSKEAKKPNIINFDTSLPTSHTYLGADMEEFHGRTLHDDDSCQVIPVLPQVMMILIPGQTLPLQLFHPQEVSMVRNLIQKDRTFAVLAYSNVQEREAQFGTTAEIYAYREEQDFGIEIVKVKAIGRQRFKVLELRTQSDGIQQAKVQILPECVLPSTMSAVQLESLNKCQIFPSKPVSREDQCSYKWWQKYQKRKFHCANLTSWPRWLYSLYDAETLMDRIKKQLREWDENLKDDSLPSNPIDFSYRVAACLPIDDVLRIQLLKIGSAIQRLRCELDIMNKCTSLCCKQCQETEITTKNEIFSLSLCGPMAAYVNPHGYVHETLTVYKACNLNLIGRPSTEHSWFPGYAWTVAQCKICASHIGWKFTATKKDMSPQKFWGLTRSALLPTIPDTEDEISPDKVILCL
T1 sequence (Q16531 whole entry partner): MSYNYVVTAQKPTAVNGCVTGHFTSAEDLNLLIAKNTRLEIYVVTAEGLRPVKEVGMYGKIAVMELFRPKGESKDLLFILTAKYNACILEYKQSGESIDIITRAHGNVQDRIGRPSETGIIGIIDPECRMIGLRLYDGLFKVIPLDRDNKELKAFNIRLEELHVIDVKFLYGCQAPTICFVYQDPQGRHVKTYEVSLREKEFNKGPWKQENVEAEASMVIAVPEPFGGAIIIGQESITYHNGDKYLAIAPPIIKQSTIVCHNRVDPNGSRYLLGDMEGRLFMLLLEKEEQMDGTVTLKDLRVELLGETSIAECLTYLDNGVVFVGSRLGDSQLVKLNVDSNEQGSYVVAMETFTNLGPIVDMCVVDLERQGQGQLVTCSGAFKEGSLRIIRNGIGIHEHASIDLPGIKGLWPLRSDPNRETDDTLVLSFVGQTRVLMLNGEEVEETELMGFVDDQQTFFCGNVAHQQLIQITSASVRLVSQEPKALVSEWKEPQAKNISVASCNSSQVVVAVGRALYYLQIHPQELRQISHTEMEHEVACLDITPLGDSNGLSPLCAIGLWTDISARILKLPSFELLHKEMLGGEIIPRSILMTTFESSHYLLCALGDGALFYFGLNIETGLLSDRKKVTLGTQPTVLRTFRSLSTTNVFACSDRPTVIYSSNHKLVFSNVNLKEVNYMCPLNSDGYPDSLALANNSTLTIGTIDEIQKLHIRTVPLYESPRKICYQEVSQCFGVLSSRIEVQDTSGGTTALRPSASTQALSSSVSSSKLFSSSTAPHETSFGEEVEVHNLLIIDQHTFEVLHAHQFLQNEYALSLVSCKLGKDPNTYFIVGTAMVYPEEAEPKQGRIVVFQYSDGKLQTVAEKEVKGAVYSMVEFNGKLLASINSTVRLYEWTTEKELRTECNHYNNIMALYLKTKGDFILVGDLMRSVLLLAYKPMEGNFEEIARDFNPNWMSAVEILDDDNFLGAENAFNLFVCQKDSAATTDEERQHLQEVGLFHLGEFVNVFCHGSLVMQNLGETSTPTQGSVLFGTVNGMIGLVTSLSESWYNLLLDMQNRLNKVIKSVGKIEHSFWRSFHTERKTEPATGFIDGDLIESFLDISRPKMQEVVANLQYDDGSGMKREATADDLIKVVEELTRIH

SMILES	DC50 [1] [µM]	DC50 [2] [µM]	DC50 [3] [µM]	DC50 [4] [µM]	Emax [5] [%]	DC50 [6] [µM]	Emax [7] [%]	DC50 [8] [µM]	Emax [9] [%]	Emax [10] [%]	DC50 (read-out: HiBiT-Degradation A375.10 BRAF 2 hours DC50, A375.10 cells, BRAF V600E, 2 hours) [µM]	DC50 (read-out: HiBiT-Degradation A375.10 BRAF 2 hours IP, A375.10 cells, BRAF V600E, 2 hours, inflection point) [µM]	DC50 (read-out: HiBiT-Degradation A375.10 BRAF 6 hours DC50, A375.10 cells, BRAF V600E, 6 hours) [µM]	DC50 (read-out: HiBiT-Degradation A375.10 BRAF 6 hours IP, A375.10 cells, BRAF V600E, 6 hours, inflection point) [µM]	DC50 (read-out: HiBiT-Degradation A375.10 BRAF 24 hours DC50, A375.10 cells, HiBiT, BRAF V600E, 24 hours) [µM]	DC50 (read-out: HiBiT-Degradation A375.10 BRAF 24 hours IP, A375.10 cells, HiBiT, BRAF V600E, 24 hours) [µM]
Cn1nc(N2CCC(=O)NC2=O)c2cc(F)c(N3CC4(CC(N5CCC6(CC5)C[C@@H](n5cnc7ccc(Oc8c(F)ccc(NS(=O)(=O)N9CC[C@@H](F)C9)c8C#N)cc7c5=O)CO6)C4)C3)cc21 [Compound 133, (3R)-N-[2-cyano-3-[3-[(3R)-8-[2-[3-(2,4-dioxohexahydropyrimidin-1-yl)-5-fluoro-1-methyl-indazol-6-yl]-2-azaspiro[3.3]heptan-6-yl]-1-oxa-8-azaspiro[4.5]decan-3-yl]-4-oxo-quinazolin-6-yl]oxy-4-fluoro-phenyl]-3-fluoro-pyrrolidine-1-sulfonamide]	< 1	> 10	< 1	< 1	< 50	< 1	< 50	< 1	50 to 90	–	–	–	–	–	–	–
CC(C)S(=O)(=O)Nc1ccc(F)c(Oc2ccc3ncn([C@H]4COC5(CCN(C6CC7(C6)CN(c6cc8c(cc6F)c(N6CCC(=O)NC6=O)nn8C)C7)CC5)C4)c(=O)c3c2)c1C#N [Compound 134, N-[2-cyano-3-[3-[(3R)-8-[2-[3-(2,4-dioxohexahydropyrimidin-1-yl)-5-fluoro-1-methyl-indazol-6-yl]-2-azaspiro[3.3]heptan-6-yl]-1-oxa-8-azaspiro[4.5]decan-3-yl]-4-oxo-quinazolin-6-yl]oxy-4-fluoro-phenyl]propane-2-sulfonamide]	< 1	< 1	< 1	< 1	< 50	< 1	< 50	< 1	–	50 to 90	–	–	–	–	–	–

The remaining lines, values ahead:

DC50 [1] [µM]	DC50 [2] [µM]	DC50 [3] [µM]	DC50 [4] [µM]	Emax [5] [%]	DC50 [6] [µM]	Emax [7] [%]	DC50 [8] [µM]	Emax [9] [%]	Emax [10] [%]	DC50 (read-out: HiBiT-Degradation A375.10 BRAF 2 hours DC50, A375.10 cells, BRAF V600E, 2 hours) [µM]	DC50 (read-out: HiBiT-Degradation A375.10 BRAF 2 hours IP, A375.10 cells, BRAF V600E, 2 hours, inflection point) [µM]	DC50 (read-out: HiBiT-Degradation A375.10 BRAF 6 hours DC50, A375.10 cells, BRAF V600E, 6 hours) [µM]	DC50 (read-out: HiBiT-Degradation A375.10 BRAF 6 hours IP, A375.10 cells, BRAF V600E, 6 hours, inflection point) [µM]	DC50 (read-out: HiBiT-Degradation A375.10 BRAF 24 hours DC50, A375.10 cells, HiBiT, BRAF V600E, 24 hours) [µM]	DC50 (read-out: HiBiT-Degradation A375.10 BRAF 24 hours IP, A375.10 cells, HiBiT, BRAF V600E, 24 hours) [µM]	SMILES
< 1	< 1	< 1	< 1	< 50	< 1	< 50	< 1	< 50	–	–	–	–	–	–	–	CCN(C)S(=O)(=O)Nc1ccc(F)c(Oc2ccc3ncn([C@H]4COC5(CCC(N6CC7(CN(c8ccc(NC9CCC(=O)NC9=O)cc8F)C7)C6)CC5)C4)c(=O)c3c2)c1C#N (stereo partly drawn) [Compound 30, 6-[2-cyano-3-[[ethyl(methyl)sulfamoyl]amino]-6-fluoro-phenoxy]-3-[(3R)-8-[6-[4-[(2,6-dioxo-3-piperidyl)amino]-2-fluoro-phenyl]-2,6-diazaspiro[3.3]heptan-2-yl]-1-oxaspiro[4.5]decan-3-yl]-4-oxo-quinazoline]
< 1	< 1	< 1	< 1	< 50	< 1	< 50	< 1	–	< 50	–	–	–	–	–	–	CCN(C)S(=O)(=O)Nc1ccc(F)c(Oc2ccc3ncn([C@H]4COC5(CCN(C6CC7(C6)CN(c6ccc(NC8CCC(=O)NC8=O)cc6F)C7)CC5)C4)c(=O)c3c2)c1C#N (stereo partly drawn) [Compound 35, (3R)-3-[6-[2-cyano-3-[[ethyl(methyl)sulfamoyl]amino]-6-fluoro-phenoxy]-4-oxo-quinazolin-3-yl]-8-[2-[4-[(2,6-dioxo-3-piperidyl)amino]-2-fluoro-phenyl]-2-azaspiro[3.3]heptan-6-yl]-1-oxa-8-azaspiro[4.5]decane]
–	–	–	–	< 50	–	< 50	–	–	50 to 90	1 to 10	< 1	< 1	< 1	< 1	< 1	CCN(C)S(=O)(=O)Nc1ccc(F)c(Oc2ccc3ncn([C@H]4COC5(CCC(N6CCN(c7ccc(NC8CCC(=O)NC8=O)cc7F)CC6)CC5)C4)c(=O)c3c2)c1C#N (stereo partly drawn) [Compound 40, 6-[2-cyano-3-[[ethyl(methyl)sulfamoyl]amino]-6-fluoro-phenoxy]-3-[(3R)-8-[4-[4-[(2,6-dioxo-3-piperidyl)amino]-2-fluoro-phenyl]piperazin-1-yl]-1-oxaspiro[4.5]decan-3-yl]-4-oxo-quinazoline]
